Patent US10519111B2, “UV absorbing compounds, compositions comprising same and uses thereof” (CORAL SUNSCREEN PTY LTD, priority 2013, dated 2019)

Test: UV absorption properties (λmax, molar extinction coefficient ε, efficiency E 1%, 1 cm)
Assay type: physicochemical
Details: for ε (molar extinction coefficient): values in order of the λmax values

| Compound | UV λmax [nm] | ε (molar extinction coefficient) [M⁻¹ cm⁻¹] |
| --- | --- | --- |
| CC1(C)CCN(C(C)(C)C)C=C1C(=O)Nc1cccc(NC(=O)C2=CN(C(C)(C)C)CCC2(C)C)c1 [Compound 188, N,N′-(1,3-phenylene)bis(1-(tert-butyl)-4,4-dimethyl-1,4,5,6-tetrahydropyridine-3-carboxamide)] | 313 | 55779 |
| Cc1ccc(N2C=C(C(=O)Nc3ccc(C)c(NC(=O)C4=CN(C(C)(C)C)CCC4(C)C)c3)C(C)(C)CC2)cc1 [Compound 190, 1-(tert-butyl)-N-(5-(4,4-dimethyl-1-(p-tolyl)-1,4,5,6-tetrahydropyridine-3-carboxamido)-2-methylphenyl)-4,4-dimethyl-1,4,5,6-tetrahydropyridine-3-carboxamide] | 314 | 51743 |
| CC1(C)CCN(c2ccc(C(C)(C)C)cc2)C=C1C(=O)Nc1ccc(NC(=O)C2=CN(c3ccc(C(C)(C)C)cc3)CCC2(C)C)cc1 [Compound 191, N,N′-(1,4-phenylene)bis(1-(4-(tert-butyl)phenyl)-4,4-dimethyl-1,4,5,6-tetrahydropyridine-3-carboxamide)] | 331 | 68095 |
| Cc1ccc(N2C=C(C(=O)Nc3ccccc3)C(C)(C)CC2)cc1 [Compound 192, 4,4-dimethyl-N-phenyl-1-(p-tolyl)-1,4,5,6-tetrahydropyridine-3-carboxamide] | 323 | 33948 |
| CC1(C)CCN(c2ccc(C(C)(C)C)cc2)C=C1C(=O)Nc1ccccc1 [Compound 193, 1-(4-(tert-butyl)phenyl)-4,4-dimethyl-N-phenyl-1,4,5,6-tetrahydropyridine-3-carboxamide] | 324 | 35759 |
| CC1(C)CCN(c2ccc(C(C)(C)C)cc2)C=C1C(=O)C(F)(F)F [Compound 194, 1-(1-(4-(tert-butyl)phenyl)-4,4-dimethyl-1,4,5,6-tetrahydropyridin-3-yl)-2,2,2-trifluoroethanone] | 337 | 42723 |
| COc1ccc(N2C=C(C(=O)C(F)(F)F)C(C)(C)CC2)cc1 [Compound 195, 2,2,2-trifluoro-1-(1-(4-methoxyphenyl)-4,4-dimethyl-1,4,5,6-tetrahydropyridin-3-yl)ethanone] | 339 | 24235 |

More lines, now with the values ahead:

| UV λmax [nm] | ε (molar extinction coefficient) [M⁻¹ cm⁻¹] | Compound |
| --- | --- | --- |
| 354 | 32744 | CN(C)c1ccc(N2C=C(C(=O)C(F)(F)F)C(C)(C)CC2)cc1 [Compound 196, 1-(1-(4-(dimethylamino)phenyl)-4,4-dimethyl-1,4,5,6-tetrahydropyridin-3-yl)-2,2,2-trifluoroethanone] |
| 337 | 43513 | Cc1ccc(N2C=C(C(=O)C(F)(F)F)C(C)(C)CC2)cc1 [Compound 197, 1-(4,4-dimethyl-1-(p-tolyl)-1,4,5,6-tetrahydropyridin-3-yl)-2,2,2-trifluoroethanone] |
| 325 |  | CC1(C)CCN(c2cccc3ccccc23)C=C1C(=O)C(F)(F)F [Compound 198, 1-(4,4-dimethyl-1-(naphthalen-1-yl)-1,4,5,6-tetrahydropyridine-3-yl)-2,2,2-trifluoroethanone] |
| 388 | 14911 | Cc1ccc(N2C=CC(C)(C)C(C(=O)C(F)(F)F)=C2)cc1 [Compound 199, 1-(4,4-dimethyl-1-(p-tolyl)-1,4-dihydropyridin-3-yl)-2,2,2-trifluoroethanone] |
| 253 | 10016 | Cc1nn(C)c(N2C=CC(C)(C)C=C2)c1C(=O)C(F)(F)F [Compound 200, 1-(5-(4,4-dimethylpyridin-1(4H)-yl)-1,3-dimethyl-1 H-pyrazol-4-yl)-2,2,2-trifluoroethanone] |
